# Values quoted from earlier work, collected in patent publication US20220031669A1, “Compositions for Broad Spectrum Topical Antimicrobials” (priority 2020, published 2022).
# Settings: thiol group of acetylcysteine
smiles,measurement,value
CC(=O)N[C@@H](CS)C(=O)O [acetylcysteine],pKa of SH,9.4
